Data on 25 compounds can be found in patent US8518997B2, “4-(phenoxyalkyl)thio)-phenoxyacetic acids and analogs” (Janssen Pharmaceutica N.V., priority 2003, dated 2013).

Values joined by “and” are separate entries in the source; they are usually repeats but may differ in a detail not shown here. Equal entries are not always repeated.

Usually EC50 stands for the concentration giving half of the maximal effect. Read a high EC50 as weaker potency.

One assay concerns the target T1, PPAR delta (Homo sapiens, UniProt Q03181).
T1 sequence (Q03181 171-441 limits assumed): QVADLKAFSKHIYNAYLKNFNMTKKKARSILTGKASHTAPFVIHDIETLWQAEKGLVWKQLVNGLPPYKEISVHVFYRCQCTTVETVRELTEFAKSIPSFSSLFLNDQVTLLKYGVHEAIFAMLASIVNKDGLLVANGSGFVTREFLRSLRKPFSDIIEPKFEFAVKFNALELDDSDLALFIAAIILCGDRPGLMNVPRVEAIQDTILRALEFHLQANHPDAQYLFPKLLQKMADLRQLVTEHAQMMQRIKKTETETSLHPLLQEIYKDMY
The assay is described as follows: Transfection assay for PPAR receptors (PPAR-Gal4 / Gal4-Luciferase reporter in HEK293 cells). Format: cell-based. Particulars: HEK293 cells co-transfected with PPAR-Gal4 (δ) receptor and Gal4-Luciferase reporter, 24 hours; multiple EC50's = multiple measurements; Table 2. As to the method: Transfection Assay Method for PPAR Receptors
HEK293 cells were grown in DMEM/F-12 Media supplemented with 10% FBS and glutamine (GIBCOBRL). The cells were co-transfected with DNA for PPAR-Gal4 (PPARα, γ or δ) receptor and Gal4-Luciferase Reporter using the DMRIE-C Reagent. On the following day, the medium was replaced with 5% Charcoal treated FBS growth medium. After six hours, cells were trypsinized and seeded at a density of 50,000 cell/well into 96 well plates and incubated overnight at 37° C. in a 5% CO2 incubator. Cells were then treated with test compounds or vehicle and incubated for 24 hours at 37° C. in a 5% CO2 incubator. Luciferase activity was assayed using the Steady-Glo Luciferase Assay Kit from Promega. […] Steady-Glo Luciferase Assay Kit was purchased from Promega Part# E254B.
A general note: A reporter such as luciferase makes a cellular process visible.
Consider `CCC(COc1ccc(C(F)(F)F)cc1)CSc1ccc(CC(=O)O)cc1Cl` (centres unmarked) [Compound 9, {3-Chloro-4-[2-(4-trifluoromethyl-phenoxymethyl)-butylsulfanyl]-phenyl}-acetic acid], for which the concentration giving a half-maximal response (EC50) is 16.6 nM and 18.5 nM.
Still for that read-out and setting: under `CCOCC(COc1ccc(C(F)(F)F)cc1)CSc1ccc(OCC(=O)O)c(C)c1` (centres unmarked) [Compound 33, {4-[2-Ethoxymethyl-3-(4-trifluoromethyl-phenoxy)-propylsulfanyl]-2-methyl-phenoxy}-acetic acid] stands 4.7 nM and 4.6 nM; under `C=CCOC(COc1ccc(C(F)(F)F)cc1)CSc1ccc(OCC(=O)O)c(C)c1` (centres unmarked) [Compound 21, {4-[2-Allyloxy-3-(4-trifluoromethyl-phenoxy)-propylsulfanyl]-2-methyl-phenoxy}-acetic acid], 3.7 nM and 4.2 nM.
For `Cc1cc(SCC(CCC#N)COc2ccc(C(F)(F)F)cc2)ccc1OCC(=O)O` (centres unmarked) [Compound 11, {4-[4-Cyano-2-(4-trifluoromethyl-phenoxymethyl)-butylsulfanyl]-2-methyl-phenoxy}-acetic acid], a half-maximal effect (EC50) was put at 5.7 nM.
Same read-out and setting: to `CCOC(COc1ccc(C(F)(F)F)cc1)COc1ccc(OCC(=O)O)c(C)c1` (centres unmarked) [Compound 44, {-4-[2-Ethoxy-3-(4-trifluoromethyl-phenoxy)-propoxy]-2-methyl-phenoxy}-acetic acid] belongs 24.3 nM.
On the same count and under the same terms, to `CCO[C@H](COc1ccc(C(F)(F)F)cc1)CSc1ccc(OCC(=O)O)c(C)c1` [Compound 15, (R)-{4-[2-Ethoxy-3-(4-trifluoromethyl-phenoxy)-propylsulfanyl]-2-methyl-phenoxy}-acetic acid] belongs 0.76 nM and 0.56 nM and 0.88 nM and 3.4 nM and 5 nM and 1.1 nM; to `Cc1cc(OCC(O)COc2ccc(C(F)(F)F)cc2)ccc1OCC(=O)O` (centres unmarked) [Compound 45], 618 nM; to `COc1ccc(OC(COc2ccc(C(F)(F)F)cc2)CSc2ccc(OCC(=O)O)c(C)c2)cc1` (centres unmarked) [Compound 29, {4-[2-(4-Methoxy-phenoxy)-3-(4-trifluoromethyl-phenoxy)-propylsulfanyl]-2-methyl-phenoxy}-acetic acid], 62.1 nM.
On the same count and under the same terms, under `CCOC(COc1ccc(C(F)(F)F)cc1)CSc1ccc(CC(=O)O)cc1Cl` (centres unmarked) [Compound 32, {3-Chloro-4-[2-ethoxy-3-(4-trifluoromethyl-phenoxy)-propylsulfanyl]-phenyl}-acetic acid] stands 11.2 nM.
In the case of `COCCC(COc1ccc(C(F)(F)F)cc1)CSc1ccc(OCC(=O)O)c(C)c1` (centres unmarked) [Compound 35, {4-[4-Methoxy-2-(4-trifluoromethyl-phenoxymethyl)-butylsulfanyl]-2-methyl-phenoxy}-acetic acid], the EC50 was 2.3 nM and 4.1 nM.
Still for that read-out and setting: under `CCO[C@@H](COc1ccc(C(F)(F)F)cc1)CSc1ccc(OCC(=O)O)c(C)c1` [Compound 16, (S)-{4-[2-Ethoxy-3-(4-trifluoromethyl-phenoxy)-propylsulfanyl]-2-methyl-phenoxy}-acetic acid] stands 22.4 nM and 27.5 nM; under `Cc1cc(SCC(COc2ccc(C(F)(F)F)cc2)OCC(=O)O)ccc1OCC(=O)O` (centres unmarked) [Compound 26, {4-[2-Carboxymethoxy-3-(4-trifluoromethyl-phenoxy)-propylsulfanyl]-2-methyl-phenoxy}-acetic acid], 126 nM; under `Cc1cc(SC[C@H](O)COc2ccc(C(F)(F)F)cc2)ccc1OCC(=O)O` [Compound 43, Acetic acid, {4-(2R)-2-hydroxy-3-(4-trifluoromethyl-phenoxy)-propylsulfanyl}-2-methyl-phenoxyy], 43.2 nM.
Same read-out and setting: under `CCCCOC(COc1ccc(C(F)(F)F)cc1)CSc1ccc(OCC(=O)O)c(C)c1` (centres unmarked) [Compound 19, {4-[2-Butoxy-3-(4-trifluoromethyl-phenoxy)-propylsulfanyl]-2-methyl-phenoxy}-acetic acid] stands 7.5 nM and 6.5 nM.
Same read-out and setting: under `Cc1cc(SCC(CC#N)COc2ccc(C(F)(F)F)cc2)ccc1OCC(=O)O` (centres unmarked) [Compound 10, {4-[3-Cyano-2-(4-trifluoromethyl-phenoxymethyl)-propylsulfanyl]-2-methyl-phenoxy}-acetic acid] stands 29 nM and 56 nM.
For `COCOC(COc1ccc(C(F)(F)F)cc1)CSc1ccc(OCC(=O)O)c(C)c1` (centres unmarked) [Compound 24, {4-[2-Methoxymethoxy-3-(4-trifluoromethyl-phenoxy)-propylsulfanyl]-2-methyl-phenoxy}-acetic acid], the concentration for a half-maximal effect (EC50) was 6.3 nM and 6.6 nM (2×) and 5.1 nM and 6.4 nM and 3.7 nM.
On to `CCC(COc1ccc(C(F)(F)F)cc1)CSc1ccc(OCC(=O)O)cc1` (centres unmarked) [Compound 4, {4-[2-(4-Trifluoromethyl-phenoxymethyl)-butylsulfanyl]-phenoxy}-acetic acid], for which the midpoint of the response, the EC50, lay at 29.6 nM.
Take `CCOC(CC(COc1ccc(C(F)(F)F)cc1)CSc1ccc(OCC(=O)O)c(C)c1)OCC` (centres unmarked) [Compound 36, {4-[4,4-Diethoxy-2-(4-trifluoromethyl-phenoxymethyl)-butylsulfanyl]-2-methyl-phenoxy}-acetic acid]: the EC50 worked out at 52.9 nM.
The same measure, in the same setting: to `CCOCCC(COc1ccc(C(F)(F)F)cc1)CSc1ccc(OCC(=O)O)c(C)c1` (centres unmarked) [Compound 37, {4-[4-Ethoxy-2-(4-trifluoromethyl-phenoxymethyl)-butylsulfanyl]-2-methyl-phenoxy}-acetic acid] belongs 1.9 nM and 2.9 nM; to `COC(COc1ccc(C(F)(F)F)cc1)CSc1ccc(OCC(=O)O)c(C)c1` (centres unmarked) [Compound 14, {4-[2-Methoxy-3-(4-trifluoromethyl-phenoxy)-propylsulfanyl]-2-methyl-phenoxy}-acetic acid], 16.2 nM and 21.5 nM; to `Cc1ccc(OCCCSc2ccc(OCC(=O)O)c(C)c2)cc1` [Compound 8], 215 nM.
Turning to `Cc1cc(SCC/C=C/c2ccc(C(F)(F)F)cc2)ccc1OCC(=O)O` [Compound 40, {2-Methyl-4-[4-(4-trifluoromethyl-phenyl)-but-3-enylsulfanyl]-phenoxy}-acetic acid], the concentration giving a half-maximal response (EC50) is 39.3 nM and 43.7 nM.
Still for that read-out and setting: to `Cc1cc(SCC(O)COc2ccc(C(F)(F)F)cc2)ccc1OCC(=O)O` (centres unmarked) [Compound 13] belongs 79 nM.

The same assay, now with this note: Table 3 compounds of interest, tested likewise.
Compound `Cc1cc(SCCCOc2ccc(C(F)(F)F)cc2)ccc1OCC(=O)O` [{2-Methyl-4-[3-(4-trifluoromethyl-phenoxy)-propylsulfanyl]-phenoxy}-acetic acid] registered an EC50 of 17.6 nM.

The subject of the next assay is differentiated THP-1 monocytes.
Experiment: not given
Particulars: cited from earlier work.
On to `Cc1cc(SCc2sc(-c3ccc(C(F)(F)F)cc3)nc2C)ccc1OCC(=O)O` [GW501516], for which the “ABCA1 mRNA expression” value is given as “induced” and the cholesterol efflux result was “enhanced”.
